According to PubChem BioAssay (NCI):
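Each compound was tested at five concentrations against cells in 96-well plates for 48 hours. GI50 marks 50% less growth. TGI: total growth inhibition.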

Columns and labels:
Assay in all cases: DTP human tumour cell line panel, 48 h; in the data active means GI50 below about 0.43 µM; inactive means the rest
[1] = tested on: UO-31 renal
[2] = tested on: RPMI-8226 leukemia
[3] = tested on: SN12C renal
[4] = tested on: HCT-15 colon
[5] = tested on: CCRF-CEM leukemia
[6] = tested on: A549 NSCLC
[7] = tested on: MOLT-4 leukemia
[8] = tested on: RXF 393 renal
[9] = tested on: MDA-MB-435
[10] = tested on: LOX IMVI melanoma
[11] = tested on: MALME-3M melanoma
[12] = tested on: SK-MEL-2 melanoma
[13] = tested on: SR leukemia
[14] = tested on: NCI/ADR-RES ovarian
[15] = tested on: OVCAR-5 ovarian
[16] = tested on: SNB-19 CNS
[17] = tested on: HOP-62 NSCLC
[18] = tested on: HCC-2998 colon
[19] = tested on: SNB-75 CNS
[20] = tested on: K-562 leukemia
[21] = tested on: CAKI-1 renal
[22] = tested on: MCF7 breast
[23] = tested on: NCI-H522 lung
[24] = tested on: HS 578T breast
[25] = tested on: HOP-92 NSCLC
[26] = tested on: SW-620 colon
[27] = tested on: OVCAR-4 ovarian
[28] = tested on: A498 renal
[29] = tested on: HCT-116 colon
[30] = tested on: SK-OV-3 ovarian
[31] = tested on: ACHN renal
[32] = tested on: U251 CNS
[33] = tested on: OVCAR-8 ovarian
[34] = tested on: UACC-62 melanoma
[35] = tested on: IGROV1 ovarian
[36] = tested on: NCI-H23 lung
[37] = tested on: HL-60(TB) leukemia
[38] = tested on: SF-295 CNS
[39] = tested on: EKVX NSCLC
[40] = tested on: SF-539 CNS
[41] = tested on: MDA-MB-231 breast
[42] = tested on: 786-0 renal
[43] = tested on: MDA-MB-468 breast
[44] = tested on: NCI-H460 lung
[45] = tested on: NCI-H226 lung
[46] = tested on: PC-3 prostate
[47] = tested on: TK-10 renal
[48] = tested on: OVCAR-3 ovarian
[49] = tested on: SK-MEL-5 melanoma
[50] = tested on: T-47D breast
[51] = tested on: M14 melanoma
[52] = tested on: HT29 colon
[53] = tested on: BT-549 breast
[54] = tested on: DU-145 prostate
[55] = tested on: UACC-257 melanoma
[56] = tested on: COLO 205 colon
[57] = tested on: SK-MEL-28 melanoma
[58] = tested on: KM12 colon
[59] = tested on: SF-268 CNS

O=C(Nc1ccc(OCC(=O)c2ccc(Cl)cc2)cc1)Nc1ccc(Cl)c(C(F)(F)F)c1
75.8 µM: TGI [17]
32 µM: TGI [41]
30 µM: TGI [28]
25.8 µM: TGI [32]
42.1 µM: TGI [25]
inactive: GI50 [1] 3.44 µM | GI50 [2] 3.21 µM | GI50 [3] 6 µM | GI50 [4] 3.17 µM | GI50 [5] 3.95 µM | GI50 [6] 3.69 µM | GI50 [7] 3.6 µM | GI50 [8] 3.13 µM | GI50 [9] 6.7 µM | GI50 [10] 4.41 µM | GI50 [11] 3.61 µM | GI50 [12] 2.92 µM | GI50 [13] 13.7 µM | GI50 [14] 4.06 µM | GI50 [15] 7.49 µM | GI50 [16] 4.62 µM | GI50 [17] 10.5 µM | GI50 [18] 3.4 µM | GI50 [19] 2.53 µM | GI50 [20] 10.4 µM | GI50 [21] 4.1 µM | GI50 [22] 5.15 µM | GI50 [23] 3.68 µM | GI50 [24] 4.44 µM | GI50 [25] 4.07 µM | GI50 [26] 4.67 µM | GI50 [27] 5.35 µM | GI50 [28] 3 µM | GI50 [29] 4.66 µM | GI50 [30] 14.2 µM | GI50 [31] 3.75 µM | GI50 [32] 5.48 µM | GI50 [33] 7.17 µM | GI50 [34] 3.28 µM | GI50 [35] 5.85 µM | GI50 [36] 5.83 µM | GI50 [37] 4.43 µM | GI50 [38] 3.8 µM | GI50 [39] 3.53 µM | GI50 [40] 7.74 µM | GI50 [41] 5.93 µM | GI50 [42] 5.8 µM | GI50 [43] 2.97 µM | GI50 [44] 3.46 µM | GI50 [45] 3.16 µM | GI50 [46] 2.9 µM | GI50 [47] 15.9 µM | GI50 [48] 4.12 µM | GI50 [49] 6.19 µM | GI50 [50] 3.25 µM | GI50 [51] 4.4 µM | GI50 [52] 4.75 µM | GI50 [53] 11.5 µM | GI50 [54] 7.97 µM | GI50 [55] 3.55 µM
> 100 µM: TGI [1] | TGI [2] | TGI [3] | TGI [4] | TGI [5] | TGI [6] | TGI [7] | TGI [9] | TGI [11] | TGI [12] | TGI [13] | TGI [14] | TGI [15] | TGI [18] | TGI [20] | TGI [21] | TGI [22] | TGI [23] | TGI [24] | TGI [26] | TGI [29] | TGI [30] | TGI [31] | TGI [33] | TGI [34] | TGI [35] | TGI [37] | TGI [39] | TGI [43] | TGI [44] | TGI [45] | TGI [46] | TGI [47] | TGI [48] | TGI [49] | TGI [50] | TGI [51] | TGI [52] | TGI [54] | TGI [55]
45.6 µM: TGI [19]
9.28 µM: TGI [8]
70.3 µM: TGI [53]
24.8 µM: TGI [40]
30.1 µM: TGI [16]
22.2 µM: TGI [10]
32.4 µM: TGI [38]
26.1 µM: TGI [42]
46.1 µM: TGI [27]
31.1 µM: TGI [36]

CN(C)CCn1c2ccccc2c2nc3cc4ccccc4cc3nc21
3.8 µM: TGI [52]
13.2 µM: TGI [54]
18.3 µM: TGI [57]
22.1 µM: TGI [27]
11.1 µM: TGI [51]
19.4 µM: TGI [50]
16.4 µM: TGI [17] | TGI [59]
12.8 µM: TGI [40]
12.4 µM: TGI [7]
13.1 µM: TGI [22]
12.9 µM: TGI [26]
5.45 µM: TGI [20]
15.9 µM: TGI [3]
12.3 µM: TGI [21]
15.3 µM: TGI [14] | TGI [41]
6.59 µM: TGI [45]
2.47 µM: TGI [4]
2.66 µM: TGI [18]
14.1 µM: TGI [29] | TGI [32]
16.5 µM: TGI [42]
21.1 µM: TGI [5]
10.4 µM: TGI [56]
21.5 µM: TGI [12]
6.36 µM: TGI [43]
inactive: GI50 [3] 2 µM | GI50 [4] 1.06 µM | GI50 [5] 6.37 µM | GI50 [6] 1.02 µM | GI50 [7] 2.76 µM | GI50 [8] 2.23 µM | GI50 [9] 4.19 µM | GI50 [10] 1.16 µM | GI50 [11] 2.41 µM | GI50 [12] 8.51 µM | GI50 [14] 2.62 µM | GI50 [15] 3.73 µM | GI50 [16] 5.8 µM | GI50 [18] 1.29 µM | GI50 [20] 1.79 µM | GI50 [21] 1.28 µM | GI50 [22] 1.29 µM | GI50 [23] 2.5 µM | GI50 [24] 12.6 µM | GI50 [56] 2.12 µM | GI50 [26] 2.08 µM | GI50 [27] 5.95 µM | GI50 [28] 14.7 µM | GI50 [29] 2.08 µM | GI50 [30] 3.98 µM | GI50 [31] 1.59 µM | GI50 [32] 2.93 µM | GI50 [33] 1.47 µM | GI50 [34] 5.13 µM | GI50 [57] 5.72 µM | GI50 [35] 1.63 µM | GI50 [36] 2.86 µM | GI50 [37] 1.07 µM | GI50 [38] 1.8 µM | GI50 [39] 3.36 µM | GI50 [40] 3.01 µM | GI50 [41] 2.51 µM | GI50 [42] 3.95 µM | GI50 [43] 1.26 µM | GI50 [44] 1.17 µM | GI50 [45] 1.89 µM | GI50 [46] 2.44 µM | GI50 [48] 4.53 µM | GI50 [58] 2.8 µM | GI50 [49] 2.88 µM | GI50 [50] 3.52 µM | GI50 [59] 3.8 µM | GI50 [51] 2.48 µM | GI50 [52] 1.41 µM | GI50 [53] 4.92 µM | GI50 [54] 2.65 µM | GI50 [55] 4.37 µM
14.6 µM: TGI [36]
16.8 µM: TGI [15]
12 µM: TGI [38]
18.5 µM: TGI [53]
18.8 µM: TGI [34]
2.85 µM: TGI [37]
16.6 µM: TGI [55]
3.54 µM: TGI [33]
15.2 µM: TGI [58]
13 µM: TGI [2]
14.5 µM: TGI [23] | TGI [44]
2.42 µM: TGI [10]
11.5 µM: TGI [31]
2.12 µM: TGI [25]
11.9 µM: TGI [49]
22.4 µM: TGI [47]
11.6 µM: TGI [1]
active: GI50 [1] 0.335 µM | GI50 [25] 0.0473 µM
32 µM: TGI [28]
39 µM: TGI [24]
14.2 µM: TGI [35]
10.2 µM: TGI [8]
16.2 µM: TGI [39]
4.52 µM: TGI [6]
18.9 µM: TGI [16]
13.5 µM: TGI [46]
8.72 µM: TGI [11]
16.7 µM: TGI [9]
17.2 µM: TGI [30] | TGI [48]
